Results taken from US7601754B2, “Flavonoid compounds as therapeutic antioxidants” (Antoxis Limited, priority 2002, dated 2009).
Several values for one entry are separate records, joined by “and”; a condition that tells them apart may be missing. Identical values can stand only once.

How the values were obtained:
[1] = Kinetic measurements: stopped-flow ESR, reduction of galvinoxyl radical; assay type: physicochemical; conditions: ESR; kinetic or stoichiometric not stated
Protocol: Within a biological system where a number of polyphenols may be present at similar concentrations, antioxidant efficacy may be predominantly governed by reaction kinetics rather than stoichiornetry. Consequently, the antioxidant potential of thirteen flavonoids and vitamin E were assessed and their kinetic and stochiometric reduction of a synthetic radical using stopped-flow electron spin resonance (ESR) spectroscopy has been compared. The radical used was galvinoxyl (Galv-O°), (2,6-di-tert-butyl-α-(3,5-di-tert-butyl-4-oxo-2,5-cyclohexadien-1-ylidene)-p-tolyloxy) shown below:
Galv-O°+Phenol-OH≈Galv-OH+phenol-O°
The process is governed by the O—H bond dissociation enthalpy of the donor.
Ethanolic solutions of flavonoid (0.2 mM) and galvinoxyl (0.2 mM) were de-oxygenated under a stream of nitrogen gas. Aliquots (6 ml) were transferred to Hamilton gas-tight syringes (10 ml) coupled to a pneumatic ram and connected to a two-stream ESR quartz flow-cell. In situ reaction at 20° C.±2° C. between the flavonoid and galvinoxyl was initiated by rapidly evacuating the syringes. […] Decay curves were obtained by operating in timesweep mode with the static field set at the resonance maximum of the galvinoxyl signal.

[2] = test system: rat liver microsomes from vitamin E-deficient rats; assay: Inhibition of TBARS production in rat liver microsomes from vitamin E-deficient rats; assay type: biochemical
Protocol: Inhibition of TBARS production in rat liver microsomes from vitamin E-deficient rats by pre-incubation with target antioxidant and related compounds. Microsomes are subcellular fractions containing membrane fragments. In vitamin E-deficient rats, microsomes are especially prone to oxidative free radical damage. This can be quantified in terms of the production of thiobarbituric acid reactive substances (TBARS) which result from radical-mediated destruction of the polyunsaturated fatty acid constituents. Consequently, this is a useful biological model to determine the efficacy of phytochemicals as antioxidant membrane protectants. Vitamin E-deficient microsomal suspensions were incubated for 30 minutes with one of myricetin, sample A, sample B, sample C (as shown below) or d-alpha-tocopherol, or with a compound 9c, 9d, 9e, 9e*, 9f, 9g, 9g*, 9h, 9i* or 9j (prepared as described above in Examples 1 to 10). […] TBARS production was then measured by HPLC.

Solubility in octanol = assay type: physicochemical

O=c1c(O)c(-c2cc(O)c(O)c(O)c2)oc2ccccc12 [Control B]
antioxidant activity by ESR (in words) [1]: retains potent antioxidant activity
TBARS production (Mean) ([2]; after 20 minutes incubation with Fe(II)-ADP/ascorbate, normalised to a tocopherol reading of 20, 30 minutes pre-incubation, higher reading = lower protection): 236.525 and 236.5249
membrane protection against TBARS production (in words) ([2]; over the 20 minute oxidation period): does not give rise to significant membrane protective effects
solubility in octanol (in words) (Solubility in octanol): very soluble in octanol
